Laboratory results as given in BindingDB's records for doi:10.1111/cbdd.12198 (Shanghai Institute of Pharmaceutical Industry, 2014).

Legend:
[1] = target: Serine/threonine-protein kinase B-raf [V600E] (Homo sapiens, UniProt P15056, V600E); experiment: Biochemical Assay; conditions: pH 7.5; 25 °C
Experimental: (§1) Compounds were prepared in DMSO at 10mmol/L and serially diluted in a 96-well plate as the source plate. The intermediate plate consists of 4µL from the source plate mixed with 96µL of 1× kinase buffer (50mmol/L HEPES, pH 7.5; 10mmol/L MgCl2; 1mmol/L EGTA; 0.01% Brij-35). Of 2.5µL was transferred to a 384-well assay plate in duplicates. To the assay plate, 5µL of BRAF 7nmol/L or BRAF V600E 0.7nmol/L, 2.5µL of substrate solution containing Fluorescein-MAP2K1 0.8µmol/L and ATP (for BRAF 2µmol/L, for BRAF V600E 6µmol/L) were added and the assay plate was incubated with the compounds for 1 h at room temperature. The reaction was stopped with the addition of 10µL of detection solution (antibody 4nmol/L and EDTA 20mmol/L in antibody dilution buffer) to each well of the assay plate.

[2] = target: Serine/threonine-protein kinase B-raf (Homo sapiens, UniProt P15056); experiment: Biochemical Assay; conditions: pH 7.5; 25 °C
Sequence of Serine/threonine-protein kinase B-raf (P15056 whole entry): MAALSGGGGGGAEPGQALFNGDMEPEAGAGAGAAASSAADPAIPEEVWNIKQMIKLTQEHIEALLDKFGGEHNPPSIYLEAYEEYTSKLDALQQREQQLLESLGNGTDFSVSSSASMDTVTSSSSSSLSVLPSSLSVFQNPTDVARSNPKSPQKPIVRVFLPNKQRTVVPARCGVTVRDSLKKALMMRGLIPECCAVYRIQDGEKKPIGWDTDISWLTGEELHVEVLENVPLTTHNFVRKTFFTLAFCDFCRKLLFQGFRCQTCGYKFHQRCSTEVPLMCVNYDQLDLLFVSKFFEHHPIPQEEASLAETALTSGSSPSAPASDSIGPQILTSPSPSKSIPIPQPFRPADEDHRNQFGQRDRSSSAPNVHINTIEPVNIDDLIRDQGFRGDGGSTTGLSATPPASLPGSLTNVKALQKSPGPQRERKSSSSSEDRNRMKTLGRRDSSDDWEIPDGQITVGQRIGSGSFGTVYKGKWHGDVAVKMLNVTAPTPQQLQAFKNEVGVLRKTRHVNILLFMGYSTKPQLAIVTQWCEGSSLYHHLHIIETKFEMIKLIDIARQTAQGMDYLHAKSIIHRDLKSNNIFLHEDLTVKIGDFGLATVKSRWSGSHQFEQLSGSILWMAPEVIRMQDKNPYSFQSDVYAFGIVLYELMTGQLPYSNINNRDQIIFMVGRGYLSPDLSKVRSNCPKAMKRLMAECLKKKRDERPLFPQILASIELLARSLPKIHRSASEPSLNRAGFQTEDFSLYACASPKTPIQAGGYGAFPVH
Experimental: as §1

Sequence of Serine/threonine-protein kinase B-raf [V600E] (P15056 2-766 V600E limits assumed): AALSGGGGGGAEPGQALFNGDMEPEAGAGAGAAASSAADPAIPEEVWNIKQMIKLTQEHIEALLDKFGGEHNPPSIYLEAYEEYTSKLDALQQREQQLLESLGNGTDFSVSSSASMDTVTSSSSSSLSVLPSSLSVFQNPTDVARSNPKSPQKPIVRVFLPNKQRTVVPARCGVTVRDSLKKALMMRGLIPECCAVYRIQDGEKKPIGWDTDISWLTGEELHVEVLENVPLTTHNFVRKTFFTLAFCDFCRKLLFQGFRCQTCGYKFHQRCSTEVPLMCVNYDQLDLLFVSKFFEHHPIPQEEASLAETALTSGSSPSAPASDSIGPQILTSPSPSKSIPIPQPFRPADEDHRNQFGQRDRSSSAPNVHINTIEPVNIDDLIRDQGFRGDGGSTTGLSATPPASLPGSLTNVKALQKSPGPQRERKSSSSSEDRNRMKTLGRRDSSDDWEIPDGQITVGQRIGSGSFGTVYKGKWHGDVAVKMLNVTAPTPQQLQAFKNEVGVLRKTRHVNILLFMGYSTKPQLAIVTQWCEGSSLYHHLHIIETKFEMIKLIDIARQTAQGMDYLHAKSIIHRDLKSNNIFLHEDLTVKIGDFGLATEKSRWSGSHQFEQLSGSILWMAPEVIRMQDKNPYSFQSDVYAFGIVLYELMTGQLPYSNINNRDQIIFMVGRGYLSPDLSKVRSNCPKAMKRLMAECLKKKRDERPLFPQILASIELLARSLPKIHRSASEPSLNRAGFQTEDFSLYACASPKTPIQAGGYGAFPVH

Compound	IC50 [1]	IC50 [2]
Cc1nc(Nc2cccc(NC(=O)Nc3ccc(Cl)c(C(F)(F)F)c3)c2)cc(N2CCOCC2)n1 [1-(4-Chloro-3-(trifluoromethyl)phenyl)-3-(3-(2-methyl-6-morpholinopyrimidin-4-ylamino)phenyl) urea (Compound 3)]	142 nM	271 nM
Cc1nc(Nc2cccc(NC(=O)Nc3ccc(F)c(Cl)c3)c2)cc(N2CCOCC2)n1 [1-(3-Chloro-4-fluorophenyl)-3-(3-(2-methyl-6-morpholinopyrimidin-4-ylamino)phenyl)urea (Compound 2)]	626 nM	1070 nM
Cc1nc(N2CCOCC2)cc(N(C)c2cccc(NC(=O)Nc3ccc(Cl)c(C(F)(F)F)c3)c2)n1 [1-(4-Chloro-3-(trifluoromethyl)phenyl)-3-(3-(methyl (2-methyl-6-morpholinopyrimidin-4-yl)amino)phenyl)urea (Compound 6)]	1370 nM	1370 nM
Cc1nc(N2CCN(C)CC2)cc(N(C)c2cccc(NC(=O)Nc3ccc(Cl)c(C(F)(F)F)c3)c2)n1 [1-(4-Chloro-3-(trifluoromethyl)phenyl)-3-(3-(methyl (2-methyl-6-(4-methylpiperazin-1-yl)pyrimidin-4-yl)amino)phenyl)urea (Compound 7)]	4990 nM	5280 nM
Cc1nc(Nc2cccc(NC(=O)Nc3ccc(Cl)c(C(F)(F)F)c3)c2)cc(N2CCN(C)CC2)n1 [1-(4-Chloro-3-(trifluoromethyl)phenyl)-3-(3-(2-methyl-6-(4-methylpiperazin-1-yl)pyrimidin-4-ylamino)phenyl)urea (Compound 4)]	7170 nM	> 10000 nM
Cc1nc(Cl)cc(Nc2cccc(NC(=O)Nc3ccc(Cl)c(C(F)(F)F)c3)c2)n1 [1-(3-(6-Chloro-2-methylpyrimidin-4-ylamino)phenyl)-3-(4-chloro-3-(trifluoromethyl)phenyl)urea (Compound 1)]	298 nM	722 nM
Cc1nc(N2CCOCC2)cc(N(C)c2cccc(NC(=O)Nc3ccc(F)c(Cl)c3)c2)n1 [1-(3-Chloro-4-fluorophenyl)-3-(3-(methyl (2-methyl-6-morpholinopyrimidin-4-yl)amino)phenyl)urea (Compound 5)]	232 nM	366 nM
